Structures can show the parent of a compound that is named as a salt.
What was measured:
[1] = DPPH radical scavenging activity assay; conditions: triplicate, preliminary
Method: DPPH radical scavenging activity of compounds 2b, 2f, 3b, 3d and 3f was evaluated following the literature method. Ascorbic acid (Sigma Aldrich, Saint Louis, Missouri, USA) was used as a positive control. The test compounds and controls at various concentrations ranging from (0 µM to 40 µM) in DMSO were mixed with a solution of DPPH (0.20 mM) in methanol. The mixtures were incubated in the dark for 45 min and the absorbances were recorded at 512 nm using Varioskan flash microplate spectrophotometer reader. All tests and analyses were run in triplicate and averaged. The inhibition was calculated in terms of percentage using the formula below:(5) DPPH radical scavenged (%)=AbC−AbS/AbC×100, where AbC is absorbance of control and AbS the absorbance of the test sample.

BChE [2] = target: T1, BChE (Homo sapiens, UniProt P06276); assay: biochemical; conditions: for IC50: Ellman's method, triplicate; for SI AChE/BChE: Selectivity index IC50 (AChE)/IC50 (BChE)
T1 construct: purchased cloud-clone corp., purchased through BIOCOM Africa (Pty) Ltd. RPC348Hu0 2_100
Method: The mixtures were incubated for 15 min at RT. The reaction was initiated by adding of 10 µL of mixture solution of 5 mM 5,50-dithio-bis-nitrobenzoic acid (DTNB) in 50 mM tris buffer (pH 7.7) and 10 µL acetylthiocholine (ASCh; 5 mM) in 50 mM tris buffer, pH 7.7 into the wells containing the mixtures. The hydrolysis of ASCh was determined by monitoring the formation of the yellow 5-thio-2-nitrobenzoate anion resulting from reaction of DTNB with thiocholines (SCh).
The IC50 values were determined graphically from inhibition curves (inhibitor concentration and absorbance) using the graph pad prism.

AChE [3] = target: T2, AChE (Homo sapiens, UniProt P22303); assay: biochemical; conditions: for IC50: Ellman's method, triplicate, read-out: IC50 (µM) AChE; for SI BChE/AChE: Selectivity index IC50 (BChE)/IC50 (AChE)
T2 construct: purchased BL, purchased through BIOCOM Africa (Pty) Ltd. 768104

BChE [4] = target: T1, BChE; assay: Kinetic studies against BChE (Lineweaver–Burk and Dixon plots); format: biochemical; conditions: for Ki: Dixon plots; for mode of inhibition against BChE: Lineweaver–Burk and Dixon plots
Method: (§1) Compounds 2f, 2b, 2f, 3b, 3d and 3f were selected for the kinetic studies with substrate concentrations 0.1, 0.5, 2. 5 and 5 µM for ChEs following procedures described in our previous investigation. The Lineweaver–Burk plots (plots of the inverse of velocity (1/v) against the inverse of the substrate concentration (1/[S])) were used to ascertain the mode of inhibition of these compounds.

AChE [5] = target: T2, AChE; assay: Kinetic studies against AChE (Lineweaver–Burk and Dixon plots); format: biochemical; conditions: for Ki: Dixon plots; for mode of inhibition against AChE: Lineweaver–Burk and Dixon plots
Method: as §1

human recombinant BACE-1 = target: T3, human recombinant BACE-1 (Homo sapiens, UniProt P56817); assay: β-secretase FRET inhibitory assay; format: biochemical; conditions: triplicate
T3 construct: purchased Pan Vera; host or cells: baculovirus-expressed

[6] = test system: breast cancer cell line MCF-7; assay: MTT cytotoxicity assay, MCF-7; format: cell-based; conditions: Homo sapiens, MCF7, 24 h, read-out: IC50 against MCF-7 cancer cell line
Method: Briefly, the cells were seeded in 96-well plate at a density of 20 × 10^3 cells per well and then incubated at 37 °C in 5% CO2 to allow cell attachment. […] An equal volume of medium was used as the control treatment. After treatment for 24 h, 10 μL MTT (5 mg/mL) was added to each well and the plate was further incubated for 4 h later. The supernatant was removed and 100 μL of DMSO was added to each well to dissolve the resulting formazan crystals. The absorbance was read at 570 nm using the Varioskan flash microplate spectrophotometer reader. The percentages of cell viability were used to determine the IC50 values.

T3 sequence (P56817 46-501): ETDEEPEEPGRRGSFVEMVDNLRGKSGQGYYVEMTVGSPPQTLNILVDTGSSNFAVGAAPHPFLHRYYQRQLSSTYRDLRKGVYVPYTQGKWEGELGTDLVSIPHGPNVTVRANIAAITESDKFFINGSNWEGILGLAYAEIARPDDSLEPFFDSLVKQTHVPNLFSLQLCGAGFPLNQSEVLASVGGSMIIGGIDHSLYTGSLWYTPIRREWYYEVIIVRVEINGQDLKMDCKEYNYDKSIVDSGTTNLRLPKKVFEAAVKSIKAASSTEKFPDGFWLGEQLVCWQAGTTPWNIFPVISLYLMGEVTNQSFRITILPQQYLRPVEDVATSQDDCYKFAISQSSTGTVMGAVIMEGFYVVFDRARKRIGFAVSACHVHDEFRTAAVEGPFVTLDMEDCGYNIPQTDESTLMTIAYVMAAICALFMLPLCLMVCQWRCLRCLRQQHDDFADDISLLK
T1 sequence (P06276 29-602): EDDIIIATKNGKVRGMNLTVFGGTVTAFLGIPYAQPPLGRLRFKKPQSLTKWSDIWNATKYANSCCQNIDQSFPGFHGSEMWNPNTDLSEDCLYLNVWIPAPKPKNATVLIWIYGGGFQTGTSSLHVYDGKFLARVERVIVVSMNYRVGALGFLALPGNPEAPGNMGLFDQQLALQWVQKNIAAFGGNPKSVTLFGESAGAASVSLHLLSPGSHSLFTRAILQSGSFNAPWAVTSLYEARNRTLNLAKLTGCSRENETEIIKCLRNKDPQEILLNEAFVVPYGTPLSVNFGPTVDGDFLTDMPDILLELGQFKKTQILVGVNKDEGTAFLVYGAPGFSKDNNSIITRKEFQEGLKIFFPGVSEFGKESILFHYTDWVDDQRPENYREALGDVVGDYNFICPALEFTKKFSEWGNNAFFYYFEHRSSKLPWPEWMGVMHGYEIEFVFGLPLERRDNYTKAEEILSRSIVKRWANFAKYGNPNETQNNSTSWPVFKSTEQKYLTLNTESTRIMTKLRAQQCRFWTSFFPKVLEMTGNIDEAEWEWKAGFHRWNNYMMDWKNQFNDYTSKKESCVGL
T2 sequence (P22303 32-614): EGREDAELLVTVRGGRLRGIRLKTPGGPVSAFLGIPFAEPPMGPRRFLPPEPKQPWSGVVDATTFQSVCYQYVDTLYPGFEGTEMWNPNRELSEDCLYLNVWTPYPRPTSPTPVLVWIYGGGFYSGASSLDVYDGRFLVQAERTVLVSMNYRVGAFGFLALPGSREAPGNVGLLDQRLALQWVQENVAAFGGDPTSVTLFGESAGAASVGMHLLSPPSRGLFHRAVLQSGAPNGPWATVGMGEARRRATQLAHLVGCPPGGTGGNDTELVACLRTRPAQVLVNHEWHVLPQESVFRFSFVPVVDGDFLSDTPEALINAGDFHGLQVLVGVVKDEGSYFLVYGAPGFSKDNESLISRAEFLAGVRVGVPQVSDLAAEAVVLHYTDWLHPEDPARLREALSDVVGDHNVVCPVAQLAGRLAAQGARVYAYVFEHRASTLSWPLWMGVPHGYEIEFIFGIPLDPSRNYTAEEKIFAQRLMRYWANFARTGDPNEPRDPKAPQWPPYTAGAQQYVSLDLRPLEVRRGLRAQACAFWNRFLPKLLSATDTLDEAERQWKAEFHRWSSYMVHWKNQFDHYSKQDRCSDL

Molecule `O=C1O[C@H]([C@@H](O)CO)C(O)=C1O` [Ascorbic acid, reference compound] has an IC50 [1] of 4.8 ± 0.01 µM.
With `O=Cc1coc2cc3oc(-c4ccccc4)cc3cc2c1=O` [Compound 2a, 5-Oxo-2-phenyl-5H-furo[3,2-g]chromene-6-carbaldehyde] the IC50 (BChE [2]) was 12.3 ± 0.02 µM, the “SI AChE/BChE” value (BChE [2]) was 2.33 and the IC50 (AChE [3]) was 28.6 ± 0.01 µM. The “SI BChE/AChE” value (AChE [3]) was 0.43.
With `O=Cc1coc2cc3oc(-c4cccc(F)c4)cc3cc2c1=O` [Compound 2b, 2-(3-Fluorophenyl)-5-oxo-5H-furo[3,2-g]chromene-6-carbaldehyde] the Ki (BChE [4]) was 1.7 ± 0.01 µM, the “mode of inhibition against BChE” value (BChE [4]) was “non-competitive” and the IC50 (BChE [2]) was 6.4 ± 0.04 µM. For the same molecule, the “SI AChE/BChE” value (BChE [2]) was 0.84, the Ki (AChE [5]) was 1.1 ± 0.02 µM and the “mode of inhibition against AChE” value (AChE [5]) was “non-competitive”. For the same molecule, the IC50 (AChE [3]) was 5.4 ± 0.05 µM, the “SI BChE/AChE” value (AChE [3]) was 1.19 and the IC50 [1] was 7.4 ± 0.01 µM. For the same molecule, the IC50 (human recombinant BACE-1) was 21.6 ± 0.01 µM.
In the case of `O=Cc1coc2cc3oc(-c4ccc(F)cc4)cc3cc2c1=O` [Compound 2c, 2-(4-Fluorophenyl)-5-oxo-5H-furo[3,2-g]chromene-6-carbaldehyde], the IC50 (BChE [2]) is reported as 15.7 ± 0.02 µM, the “SI AChE/BChE” value (BChE [2]) is reported as 0.97 and the IC50 (AChE [3]) is reported as 15.3 ± 0.01 µM. The “SI BChE/AChE” value (AChE [3]) was 1.03.
With `O=Cc1coc2cc3oc(-c4cccc(Cl)c4)cc3cc2c1=O` [Compound 2d, 2-(3-Chlorophenyl)-5-oxo-5H-furo[3,2-g]chromene-6-carbaldehyde] the IC50 (BChE [2]) was 21.6 ± 0.01 µM, the “SI AChE/BChE” value (BChE [2]) was 1.54 and the IC50 (AChE [3]) was 33.4 ± 0.03 µM. The “SI BChE/AChE” value (AChE [3]) was 0.65.
For `O=Cc1coc2cc3oc(-c4ccc(Cl)cc4)cc3cc2c1=O` [Compound 2e, 2-(4-Chlorophenyl)-5-oxo-5H-furo[3,2-g]chromene-6-carbaldehyde], the IC50 (BChE [2]) was 14 ± 0.04 µM, the “SI AChE/BChE” value (BChE [2]) was 1.61 and the IC50 (AChE [3]) was 21.8 ± 0.03 µM.
With `COc1cc(OC)cc(-c2cc3cc4c(=O)c(C=O)coc4cc3o2)c1` [Compound 2g, 2-(3,5-Dimethoxyphenyl)-5-oxo-5H-furo[3,2-g]chromene-6-carbaldehyde] the IC50 (BChE [2]) was 41.2 ± 0.03 µM, the “SI AChE/BChE” value (BChE [2]) was 0.26 and the IC50 (AChE [3]) was 10.8 ± 0.02 µM. For the same molecule, the “SI BChE/AChE” value (AChE [3]) was 3.81.
For `Cc1ccc(-c2cc3cc4c(=O)c(C=O)coc4cc3o2)cc1` [Compound 2h, 5-Oxo-2-(p-tolyl)-5H-furo[3,2-g]chromene-6-carbaldehyde], the IC50 (BChE [2]) was 28.1 ± 0.03 µM, the “SI AChE/BChE” value (BChE [2]) was 0.46 and the IC50 (AChE [3]) was 12.9 ± 0.01 µM. The “SI BChE/AChE” value (AChE [3]) was 2.18.
With `O=Cc1coc2cc3oc(C4=CCCCC4)cc3cc2c1=O` [Compound 2i, 2-(Cyclohex-1-en-1-yl)-5-oxo-5H-furo[3,2-g]chromene-6-carbaldehyde] the IC50 (BChE [2]) was 34.8 ± 0.02 µM, the “SI AChE/BChE” value (BChE [2]) was 0.65 and the IC50 (AChE [3]) was 22.6 ± 0.03 µM. The “SI BChE/AChE” value (AChE [3]) was 1.54.
For `O=c1c(C=NNc2ccc(C(F)(F)F)cc2)coc2cc3oc(-c4ccccc4)cc3cc12` [Compound 3a, 2-Phenyl-6-[(4-trifluoromethylphenyl)hydrazonomethyl]furo[3,2-g]chromen-5-one], the IC50 (BChE [2]) was 26.3 ± 0.02 µM, the “SI AChE/BChE” value (BChE [2]) was 0.70 and the IC50 (AChE [3]) was 18.4 ± 0.01 µM. The “SI BChE/AChE” value (AChE [3]) was 1.43.
In the case of `O=c1c(C=NNc2ccc(C(F)(F)F)cc2)coc2cc3oc(-c4cccc(F)c4)cc3cc12` [Compound 3b, 2-(3-Fluorophenyl)-6-[(4-trifluoromethylphenyl)hydrazonomethyl]furo[3,2-g]chromen-5-one], the Ki (BChE [4]) is reported as 6.1 ± 0.02 µM, the “mode of inhibition against BChE” value (BChE [4]) is reported as “non-competitive” and the IC50 (BChE [2]) is reported as 11.2 ± 0.02 µM. For the same molecule, the “SI AChE/BChE” value (BChE [2]) was 0.68, the Ki (AChE [5]) was 0.58 ± 0.04 µM and the “mode of inhibition against AChE” value (AChE [5]) was “non-competitive”. For the same molecule, the IC50 (AChE [3]) was 7.6 ± 0.03 µM, the “SI BChE/AChE” value (AChE [3]) was 1.47 and the IC50 [1] was 21.8 ± 0.02 µM. The IC50 (human recombinant BACE-1) was 17.3 ± 0.03 µM.
With `O=c1c(C=NNc2ccc(C(F)(F)F)cc2)coc2cc3oc(-c4ccc(F)cc4)cc3cc12` [Compound 3c, 2-(4-Fluorophenyl)-6-[(4-trifluoromethylphenyl)hydrazonomethyl]furo[3,2-g]chromen-5-one] the IC50 (BChE [2]) was 14.1 ± 0.01 µM, the “SI AChE/BChE” value (BChE [2]) was 1.49 and the IC50 (AChE [3]) was 21.2 ± 0.01 µM. The “SI BChE/AChE” value (AChE [3]) was 0.67.
For `O=c1c(C=NNc2ccc(C(F)(F)F)cc2)coc2cc3oc(-c4cccc(Cl)c4)cc3cc12` [Compound 3d, 2-(3-Chlorophenyl)-6-[(4-trifluoromethylphenyl)hydrazonomethyl]furo[3,2-g]chromen-5-one], the Ki (BChE [4]) was 0.85 ± 0.01 µM, the “mode of inhibition against BChE” value (BChE [4]) was “non-competitive” and the IC50 (BChE [2]) was 7.2 ± 0.03 µM. The “SI AChE/BChE” value (BChE [2]) was 2.56, the Ki (AChE [5]) was 2.5 ± 0.01 µM and the “mode of inhibition against AChE” value (AChE [5]) was “non-competitive”. For the same molecule, the IC50 (AChE [3]) was 18.3 ± 0.04 µM, the “SI BChE/AChE” value (AChE [3]) was 0.39 and the IC50 [1] was 20.9 ± 0.03 µM. For the same molecule, the IC50 (human recombinant BACE-1) was 32.8 ± 0.02 µM.
For `O=c1c(C=NNc2ccc(C(F)(F)F)cc2)coc2cc3oc(-c4ccc(Cl)cc4)cc3cc12` [Compound 3e, 2-(4-Chlorophenyl)-6-[(4-trifluoromethylphenyl)hydrazonomethyl]furo[3,2-g]chromen-5-one], the IC50 (BChE [2]) was 24.6 ± 0.02 µM, the “SI AChE/BChE” value (BChE [2]) was 0.52 and the IC50 (AChE [3]) was 12.9 ± 0.02 µM. The “SI BChE/AChE” value (AChE [3]) was 1.91.
In the case of `COc1ccc(-c2cc3cc4c(=O)c(C=NNc5ccc(C(F)(F)F)cc5)coc4cc3o2)cc1` [Compound 3f, 2-(4-Methoxyphenyl)-6-[(4-trifluoromethylphenyl)hydrazonomethyl]furo[3,2-g]chromen-5-one], the Ki (BChE [4]) is reported as 5.4 ± 0.04 µM, the “mode of inhibition against BChE” value (BChE [4]) is reported as “competitive” and the “Vmax against BChE” value (BChE [4]; Lineweaver–Burk plots, substrate 0–5 µM) is reported as 0.013 ± 0.02. The IC50 (BChE [2]) was 9.6 ± 0.05 µM, the “SI AChE/BChE” value (BChE [2]) was 0.56 and the Ki (AChE [5]) was 8.16 ± 0.02 µM. The “mode of inhibition against AChE” value (AChE [5]) was “non-competitive”, the IC50 (AChE [3]) was 5.4 ± 0.02 µM and the “SI BChE/AChE” value (AChE [3]) was 1.78. For the same molecule, the IC50 [1] was 23.9 ± 0.04 µM and the IC50 (human recombinant BACE-1) was 25.3 ± 0.04 µM.
With `COc1cc(OC)cc(-c2cc3cc4c(=O)c(C=NNc5ccc(C(F)(F)F)cc5)coc4cc3o2)c1` [Compound 3g, 2-(3,5-Dimethoxyphenyl)-6-[(4-trifluoromethylphenyl)hydrazonomethyl]furo[3,2-g]chromen-5-one] the IC50 (BChE [2]) was 31.2 ± 0.04 µM, the “SI AChE/BChE” value (BChE [2]) was 1.12 and the IC50 (AChE [3]) was 34.9 ± 0.01 µM. For the same molecule, the “SI BChE/AChE” value (AChE [3]) was 0.89.
For `Cc1ccc(-c2cc3cc4c(=O)c(C=NNc5ccc(C(F)(F)F)cc5)coc4cc3o2)cc1` [Compound 3h, 2-(4-p-Tolyl)-6-[(4-trifluoromethylphenyl)hydrazonomethyl]furo[3,2-g]chromen-5-one], the IC50 (BChE [2]) was 35.4 ± 0.015 µM, the “SI AChE/BChE” value (BChE [2]) was 0.30 and the IC50 (AChE [3]) was 10.5 ± 0.03 µM. The “SI BChE/AChE” value (AChE [3]) was 3.37.
For `O=c1c(C=NNc2ccc(C(F)(F)F)cc2)coc2cc3oc(C4=CCCCC4)cc3cc12` [Compound 3i, 2-(Cyclohex-1-en-1-yl)-6-((2-(4-(trifluoromethyl)phenyl)hydrazono)methyl)-5H-furo[3,2-g]chromen-5-one], the IC50 (BChE [2]) was 30.9 ± 0.02 µM, the “SI AChE/BChE” value (BChE [2]) was 0.96 and the IC50 (AChE [3]) was 29.8 ± 0.01 µM. For the same molecule, the “SI BChE/AChE” value (AChE [3]) was 1.04.
`COc1cccc2c1C(=O)c1c(O)c3c(c(O)c1C2=O)C[C@@](O)(C(=O)CO)C[C@@H]3O[C@H]1C[C@H](N)[C@H](O)[C@H](C)O1` [doxorubicin, doxorubicin hydrochloride, reference compound] showed an IC50 [6] of 1.59 ± 0.01 µM.

Source: publication PMC6862662, “In Vitro Evaluation and Docking Studies of 5-oxo-5H-furo[3,2-g]chromene-6-carbaldehyde Derivatives as Potential Anti-Alzheimer’s Agents” (International Journal of Molecular Sciences, 2019)
